Test results taken from patent publication US20260144798A1, “Disruption of Vascular Smooth Muscle Relaxation by Carfilzomib May be the Primary Reason for CFZ-Induced Vascular Dysfunction” (AMGEN INC., priority 2019, published 2026).
pEC50: −log10 of the molar value. Where two headings read alike, the source gives them in different places.

Assays:
rat aortic rings [1] = experiment: Acetylcholine-induced relaxation of phenylephrine-precontracted rat aortic rings; conditions: for EC50 for ACh-induced relaxation, CFZ in combination with PDE5 inhibitor: PDE5 inhibitor 30 nM, 10-minute pre-treatment before CFZ, CFZ alone 7.3×10^−8, vehicle alone 1.9×10^−8 (FIG. 5B); for prevention of CFZ induced vascular dysfunction in the presence of ACh: inhibitor 10 mins before 2.7 μM CFZ for 1 hour, 1 μM Phenylephrine precontraction (FIG. 8A, 9A)
Method: (§2) For assessment of the effect of CFZ on vascular relaxation, the pre-treated aortic rings were incubated with 1 μM PE for 20 minutes to induce contraction. For experiments involving sildenafil and tadalafil, a 10-minute pre-treatment with 30 nM of these smooth muscle relaxants was done prior to the incubation with CFZ. After reaching a stable contraction, ACh, sodium nitroprusside (SNP), nifedipine, riociguat, or cinaciguat was added to the chamber at an increasing concentration from 100 pM to 10 μM; each stepwise concentration increase was added after the response to the current concentration reached a plateau. The relaxation was continuously measured and plotted as percent relaxation normalized to the response with 1 μM PE.
(§3) Aortas were isolated from 8-10 week old CD® (Sprague Dawley) rats (from Charles River Laboratories) in an ice-cold, oxygenated (95% O2, 5% CO2) Krebs-Henseleit buffer. The aortas were then carefully cleaned to remove perivascular fat and cut into 2-mm rings that were mounted between two stainless steel wires in the myograph chamber containing 8 mL of Krebs-Henseleit buffer in 95% O2 and 5% CO2 at 37° C. Rings were stretch until a final stretch of 10 mN (Newton) was reached and incubated for 30 mins for equilibration.

rat aortic rings [2] = experiment: Nifedipine-induced relaxation of rat aortic rings; conditions: increasing concentration of nifedipine (FIG. 2C)
Method: An isometric myograph (DMT 620M) was used for ex vivo measurement of vascular function. Eight-to 10-week old Sprague Dawley rats (purchased from Charles River Laboratories, Wilmington, MA) were first anesthetized with 3% isoflurane and then euthanized using inhaled desflurane. The aortas were isolated in an ice-cold, oxygenated (95% O2, 5% CO2) Krebs-Henseleit buffer (118.3 mM NaCl, 4.7 mM KCl, 1.2 mM MgSO4, 1.2 mM KH2PO4, 2.5 mM CaCl2, 25 mM NaHCO3, and 11.0 mM glucose; purchased from Sigma-Aldrich, St. Louis, MO). […] The tension of the aortic rings was continuously measured with the Lab Chart 7 data acquisition system (ADInstruments, Colorado Springs, CO). […]
(§1) To assess the effect of CFZ on vascular contraction, the aortic rings were pre-treated with or without CFZ for 2 hours, followed by treatment with an increasing concentration of phenylephrine (PE) from 10 nM to 1 μM. […] The contraction was continuously measured and plotted as percent contraction normalized to the response of KPSS. […] The relaxation was continuously measured and plotted as percent relaxation normalized to the response with 1 μM PE.

rat aortic rings [3] = experiment: Angiotensin induced contraction (AUC) of rat aortic rings; conditions: inhibitor 10 mins before 2.7 μM CFZ 1.5 hour; 30 nM Angiotensin (FIG. 11)
Method: Aortas were isolated from 8-10 week old CD® (Sprague Dawley) rats (from Charles River Laboratories) in an ice-cold, oxygenated (95% O2, 5% CO2) Krebs-Henseleit buffer. The aortas were then carefully cleaned to remove perivascular fat and cut into 2-mm rings that were mounted between two stainless steel wires in the myograph chamber containing 8 mL of Krebs-Henseleit buffer in 95% O2 and 5% CO2 at 37° C. Rings were stretch until a final stretch of 10 mN (Newton) was reached and incubated for 30 mins for equilibration. The rings were constricted with 8 mL of 80 mM KPSS for 15 minutes, followed by 3 washes with the Krebs-Henseleit buffer until the force returned to the baseline stretch. The aorta were then treated for one of the following experiments: • For protein expression studies the aortic rings were pre-treated with 100 μM N(gamma)-nitro-L-arginine methyl ester (L-NAME; Sigma-Aldrich) and 10 μM indomethacin for 10 minutes prior to the pre-incubation with CFZ (Amgen Inc.) for 1.5 hours.
Following the two incubation the rings were treated with either vehicle or 2.7 μM CFZ for further 1.5 hours before addition of 30 nM Angiotensin for 30 min. Angiotensin induced transient contraction which returned to the baseline in 30 mins. Area Under the Curve (AUC) of angiotensin induced contraction was measured.
Aortic rings were incubated for 10 min with 100 μM LNAME+10 μM indomethacin (endothelium derived relaxing agents blockers) for 10 mins followed by addition of 10 μM SB 203580 (p38 inhibitor) or PF3644022 (MAPKAPK-2 inhibitor) in some rings for 10 more mins as indicated. This was followed by addition of 2.7 μM CFZ in some rings as indicated for 1.5 hour. 30 nM Angiotensin was added for 30 min. Angiotensin induced transient contraction which returned to the baseline in 30 mins.

rat aortic rings [4] = experiment: Sodium nitroprusside-induced relaxation of phenylephrine-precontracted rat aortic rings; conditions: for prevention of CFZ induced vascular dysfunction in the presence of SNP: inhibitor 10 mins before 2.7 μM CFZ for 1 hour, 1 μM Phenylephrine precontraction (FIG. 8B, 9B)
Method: as §2, §3

rat aortic rings [5] = experiment: sGC activator (cinaciguat, riociguat)-induced relaxation of rat aortic rings; conditions: Rattus norvegicus
Method: An isometric myograph (DMT 620M) was used for ex vivo measurement of vascular function. Eight-to 10-week old Sprague Dawley rats (purchased from Charles River Laboratories, Wilmington, MA) were first anesthetized with 3% isoflurane and then euthanized using inhaled desflurane. The aortas were isolated in an ice-cold, oxygenated (95% O2, 5% CO2) Krebs-Henseleit buffer (118.3 mM NaCl, 4.7 mM KCl, 1.2 mM MgSO4, 1.2 mM KH2PO4, 2.5 mM CaCl2, 25 mM NaHCO3, and 11.0 mM glucose; purchased from Sigma-Aldrich, St. Louis, MO). The thoracic aorta was carefully cleaned to remove perivascular fat and cut into 2-mm rings that were mounted between two stainless steel wires in the myograph chamber containing 8 mL of Krebs-Henseleit buffer in 95% O2 and 5% CO2 at 37° C. First, the rings were equilibrated in the chamber for 20 minutes, followed by a gradual increase of mechanical stretch until a final stretch of 10 mN (Newton) was reached. After an additional incubation with fresh buffer for 30 minutes, the rings were constricted with 8 mL of 80 mM KPSS (43 mM NaCl, 80 mM KCl, 2.5 mM CaCl2, 1.2 mM MgSO4, 1.2 mM KH2PO4, 25.0 mM NaHCO3, and 11.0 mM glucose) for 15 to 20 minutes, followed by 3 washes with the Krebs-Henseleit buffer until the force returned to the baseline stretch. The tension of the aortic rings was continuously measured with the Lab Chart 7 data acquisition system (ADInstruments, Colorado Springs, CO). […] The tension of the aortic rings was continuously measured with the Lab Chart 7 data acquisition system (ADInstruments, Colorado Springs, CO).
as §1

rat aortic rings [6] = experiment: Basal vascular tone of isolated rat aortic rings, isometric myograph; conditions: 10 μM SB 203580 10 mins before 2.7 μM CFZ for 3 hour; LNAME+indomethacin (FIG. 10)
Method: An isometric myograph (DMT 620M) was used for ex vivo measurement of vascular function. Eight-to 10-week old Sprague Dawley rats (purchased from Charles River Laboratories, Wilmington, MA) were first anesthetized with 3% isoflurane and then euthanized using inhaled desflurane. The aortas were isolated in an ice-cold, oxygenated (95% O2, 5% CO2) Krebs-Henseleit buffer (118.3 mM NaCl, 4.7 mM KCl, 1.2 mM MgSO4, 1.2 mM KH2PO4, 2.5 mM CaCl2, 25 mM NaHCO3, and 11.0 mM glucose; purchased from Sigma-Aldrich, St. Louis, MO). The thoracic aorta was carefully cleaned to remove perivascular fat and cut into 2-mm rings that were mounted between two stainless steel wires in the myograph chamber containing 8 mL of Krebs-Henseleit buffer in 95% O2 and 5% CO2 at 37° C. First, the rings were equilibrated in the chamber for 20 minutes, followed by a gradual increase of mechanical stretch until a final stretch of 10 mN (Newton) was reached. After an additional incubation with fresh buffer for 30 minutes, the rings were constricted with 8 mL of 80 mM KPSS (43 mM NaCl, 80 mM KCl, 2.5 mM CaCl2, 1.2 mM MgSO4, 1.2 mM KH2PO4, 25.0 mM NaHCO3, and 11.0 mM glucose) for 15 to 20 minutes, followed by 3 washes with the Krebs-Henseleit buffer until the force returned to the baseline stretch. The tension of the aortic rings was continuously measured with the Lab Chart 7 data acquisition system (ADInstruments, Colorado Springs, CO). In Some of the experiments the aortic rings were pre-treated with 100 μM N(gamma)-nitro-L-arginine methyl ester (L-NAME; Sigma-Aldrich) and 10 μM indomethacin for 10 minutes prior to the pre-incubation with CFZ (Amgen Inc.) for 2 hours. After an additional incubation with fresh buffer for 30 minutes, the rings were constricted with 8 mL of 80 mM KPSS (43 mM NaCl, 80 mM KCl, 2.5 mM CaCl2, 1.2 mM MgSO4, 1.2 mM KH2PO4, 25.0 mM NaHCO3, and 11.0 mM glucose) for 15 to 20 minutes, followed by 3 washes with the Krebs-Henseleit buffer until the force returned to the baseline stretch. The tension of the aortic rings was continuously measured with the Lab Chart 7 data acquisition system (ADInstruments, Colorado Springs, CO).
To assess the effect of CFZ on vascular contraction, the aortic rings were pre-treated with or without CFZ for 2 hours, followed by treatment with an increasing concentration of phenylephrine (PE) from 10 nM to 1 μM. After the maximum contraction was achieved, the aortic rings were washed 3 times until the force returned to baseline. The contraction was continuously measured and plotted as percent contraction normalized to the response of KPSS. […] The relaxation was continuously measured and plotted as percent relaxation normalized to the response with 1 μM PE. […]

EC50 for ACh-induced relaxation, CFZ in combination with PDE5 inhibitor (rat aortic rings [1])	Structure (SMILES)	prevention of CFZ induced vascular dysfunction in the presence of ACh (rat aortic rings [1])	prevention of CFZ-increased angiotensin induced contraction (rat aortic rings [3])	prevention of CFZ induced vascular dysfunction in the presence of SNP (rat aortic rings [4])	also measured
2.8×10^−8	CN1CC(=O)N2[C@H](c3ccc4c(c3)OCO4)c3[nH]c4ccccc4c3C[C@@H]2C1=O [tadalafil]				
	COC(=O)C1=C(C)NC(C)=C(C(=O)OC)C1c1ccccc1[N+](=O)[O-] [nifedipine]				plateau of vascular relaxation (rat aortic rings [2]): around 50%
	Cc1ccc(-c2ccc3c(ccc4sc5c(c43)NC[C@@H](C)NC5=O)n2)cn1 [PF3644022]	prevented CFZ induced vascular dysfunction	prevented	prevented CFZ induced vascular dysfunction	
	COC(=O)N(C)c1c(N)nc(-c2nn(Cc3ccccc3F)c3ncccc23)nc1N [riociguat]				pEC50 (rat aortic rings [5]; rings pre-incubated with CFZ (FIG. 4C), read-out: EC50 for relaxation, sGC activator with CFZ): 7.77; pEC50 (rat aortic rings [5]; without CFZ (FIG. 4C), read-out: EC50 for relaxation, sGC activator alone): 7.74
	C[S+]([O-])c1ccc(-c2nc(-c3ccncc3)c(-c3ccc(F)cc3)[nH]2)cc1 (centres unmarked) [SB203580]	prevented CFZ induced vascular dysfunction	prevented	prevented CFZ induced vascular dysfunction	prevention of CFZ induced increase in vascular tone (rat aortic rings [6]): completely prevented
2.8×10^−8	CCCc1nn(C)c2c(=O)[nH]c(-c3cc(S(=O)(=O)N4CCN(C)CC4)ccc3OCC)nc12 [sildenafil]				reversal of CFZ effect on VSM relaxation in the presence of ACh (rat aortic rings [1]; 30 nM pre-treatment 10 minutes before CFZ (FIG. 5B)): reversed the CFZ effect on VSM relaxation; reversal of CFZ effect on VSM relaxation in the presence of SNP (rat aortic rings [4]; 30 nM pre-treatment 10 minutes before CFZ (FIG. 5A)): reversed the CFZ effect on VSM relaxation
